US20230203081A1, “LINCOSAMIDE ANTIBIOTICS AND USES THEREOF” (President and Fellows of Harvard College, priority 2020, published 2023)
≈ marks a conversion by molar mass, not a printed value. Where two headings read alike, the source gives them in different places.

Columns and labels:
[1] = tested on: methicillin-resistant Staphylococcus aureus (MRSA); test: MIC, panel of clinically derived MRSA strains; assay type: cell-based; conditions: result in words
Description: Minimum inhibitory concentrations (MICs) were determined by broth microdilution method or agar dilution method following the Clinical and Laboratory Standards Institute guidelines. Standard bacterial strains were obtained from American Type Culture Collection (ATCC). Other bacterial strains were obtained from hospitals and commercial sources, so noted in Table 11. Before the start of the MIC experiment, standard and test compound stock solutions were prepared in dimethyl sulfoxide (DMSO, Aldrich D2650) at a stock concentration of 5,120 μg/mL. The compound concentration range typically employed for each experiment was 128-0.06 μg/mL (2.5% final DMSO concentration). Clindamycin was used as a comparator in all experiments and each experiment was performed in triplicate. Specialized procedures were employed for streptococcal and anaerobic strains. All other bacterial strains were sub-cultured on blood agar plates (tryptic soy agar with 5% sheep blood, Hardy Diagnostics) and incubated overnight at 35° C. Organisms were suspended in cation-adjusted Mueller-Hinton broth (CaMHB, BD 212322) and optical density was adjusted to 0.5 McFarland standard. Suspensions were further diluted to obtain a final inoculum of 5×10^5 CFU/mL for broth microdilution experiments.

[2] = tested on: E. coli strain SQ110DTC; test: Selection of FSA-513018b resistant mutants in SQ110DTC; assay type: cell-based; conditions: SQ110DTC plated on agar containing FSA-513018b
Description: […]. […] Approximately 20 colonies appeared on both plates after incubation at 37° C. for 24 h. The segment of the 23S rRNA gene corresponding to domains V and VI of the 23S rRNA was PCR-amplified from 14 randomly selected colonies using the primers 2020R (CCCGAGACTCAGTGAAATTGAACTC) and L2904 (AAG GTT AAG CCT CAC GG). PCR products were sequenced using the primer L2667 (GGTCCTCTCGTACTAGGAGCAG).

[3] = tested on: susceptible S. aureus and E. faecium strains; test: Post-antibiotic effect (PAE) and post-antibiotic sub-MIC effect (PA-SME); assay type: cell-based; conditions: following brief exposure; result in words
Description: Post-antibiotic and post-antibiotic sub-MIC effect: Measurements of PAE and PA-SME durations were performed according to the methods described by Odenholt-Tornqvist and co-workers. […] A flask containing the unexposed bacterial strain was left as untreated control. Post-exposure, 100 μL of bacterial culture was diluted in 900 μL of sterile CaMHB; 100 μL of this diluted sample was immediately diluted further in 19.9 mL of sterile CaMHB (1:2,000 final dilution). […] Flasks were incubated at 37° C. in a shaker incubator (110 rpm). Samples (100 μL from each flask per time point) were collected at 0, 1, 3, 6, and 24 h from each flask and were serially diluted. From each dilution, 100 μL and 10 μL from each dilution were plated in duplicate on TSA plates. Plates were incubated overnight at 35° C. to determine the bacterial counts (limit of detection=20 CFU/plate or 2×10^2 CFU/mL). These counts were plotted against time with linear interpolation between time points to obtain the growth-kinetic curves. PAE and PA-SME were determined from these curves using the formulae: […]
where T is the time required for bacteria previously exposed to antibiotic to multiply 1 log10 above counts immediately following dilution, and C is the corresponding time required for untreated culture to do the same; and […]

[4] = tested on: HepG2; test: Mitochondrial ToxGlo assay; assay type: cell-based, human
Description: Mammalian cell experiments: All compounds were dissolved in sterile DMSO to a stock concentration of 20 μM and aliquoted prior to freezing at −20° C. Aliquots were limited to a maximum of 3 freeze-thaw cycles. A549 (human pulmonary carcinoma; […]) cells were cultured in Dulbecco's Modified Eagle Medium (DMEM) supplemented with 10% fetal bovine serum. K562 (human chronic myelogenous leukemia; […]) cells were cultured in Iscove's Modification of DMEM (IMDM) media supplemented with 10% fetal bovine serum. HCT116 (human colorectal carcinoma; […]) cells were cultured in McCoy's 5a (Iwakata & Grace Modification) media supplemented with 10% fetal bovine serum. HepG2 (human hepatocellular carcinoma; […]) cells were cultured in Eagle's Minimum Essential Medium (EMEM) supplemented with 10% fetal bovine serum. All cell cultures were maintained in a 5% CO2 incubator at 37° C.
Mitochondrial toxicity assays were conducted using the Promega Mitochondrial ToxGlo assay, pursuant to the manufacturer's protocol.

[5] = Microsomal intrinsic clearance (Clint,mic), species h; assay type: in vitro ADME, human; design: unit not given here
[6] = Plasma protein binding, species m; assay type: in vitro ADME; conditions: mouse
[7] = Plasma protein binding, species h; assay type: in vitro ADME; conditions: human
[8] = tested on: A. baumanii ATCC 19606; test: Murine neutropenic thigh infection model; assay type: in vivo, mice; conditions: neutropenic mouse thigh, A. baumanii ATCC 19606 (FIG. 4C)
[9] = tested on: S. pyogenes ATCC 19615; assay type: in vivo
Description: The optical density of the bacterial suspension was adjusted to 0.1 at 600 nm using sterile BHIB and was then further diluted 1:1 in 10% hog gastric mucin (HGM, type III) to prepare the infecting inoculum in 5% HGM. Mice were infected by intraperitoneal injection of 250 μL, infecting inoculum, representing 1-2×10^6 CFU per animal. […] Animals were monitored for survival for seven days following infection.

[10] = mouse, microsomes
[11] = tested on: S. aureus MMX USA 300; MRSA; test: MIC (broth microdilution or agar dilution, CLSI); assay type: cell-based; conditions: Staphylococcus aureus
In short: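 MICs follow CLSI broth microdilution or agar dilution, testing typically 128-0.06 μg/mL compound at 2.5% final DMSO, in triplicate with clindamycin comparator. Non-anaerobic strains use CaMHB at a final inoculum of 5×10^5 CFU/mL; anaerobes like C. difficile and C. scindens use specialized procedures.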

SMILES: CSC1O[C@H]([C@H](NC(=O)[C@H]2NC[C@@H]3C[C@H](CC(C)C)CCO[C@H]32)[C@H](C)Cl)C(O)[C@@H](O)[C@H]1O (stereo partly shown) [FSA-513018b]
- activity against a panel of clinically derived MRSA strains [1]: uniformly high activity
- frequency of resistant clones [2]: ~10^−8
- post-antibiotic effect on bacterial growth [3]: prolonged effects on bacterial growth
- effect on membrane integrity ([4]; HepG2, Mitochondrial ToxGlo): no effect
- effect on mitochondrial function ([4]; HepG2, Mitochondrial ToxGlo (ATP production)): no effect
- Clint,mic [5]: 34
- fraction unbound [6]: 0.05
- fraction unbound [7]: 0.08
- efficacy in thigh infection model [8]: effective
- Mice surviving ([9]; 1 mg/kg i.v., Day 1, n=8, clindamycin given as clindamycin phosphate): 8
- Mice surviving ([9]; 1 mg/kg i.v., Day 2, n=8): 7
- Mice surviving ([9]; 1 mg/kg i.v., Day 3, n=8): 7
- Mice surviving ([9]; 1 mg/kg i.v., Day 4, n=8): 7
- Mice surviving ([9]; 1 mg/kg i.v., Day 5, n=8): 7
- Mice surviving ([9]; 1 mg/kg i.v., Day 6, n=8): 7
- Mice surviving ([9]; 1 mg/kg i.v., Day 7, n=8): 7
- Mice surviving ([9]; 3 mg/kg i.v., Day 1, n=8): 8
- Mice surviving ([9]; 3 mg/kg i.v., Day 2, n=8): 8
- Mice surviving ([9]; 3 mg/kg i.v., Day 3, n=8): 8
- Mice surviving ([9]; 3 mg/kg i.v., Day 4, n=8): 8
- Mice surviving ([9]; 3 mg/kg i.v., Day 5, n=8): 8
- Mice surviving ([9]; 3 mg/kg i.v., Day 6, n=8): 8
- Mice surviving ([9]; 3 mg/kg i.v., Day 7, n=8): 8
- Mice surviving ([9]; 10 mg/kg i.v., Day 1, n=8): 8
- Mice surviving ([9]; 10 mg/kg i.v., Day 2, n=8): 8
- Mice surviving ([9]; 10 mg/kg i.v., Day 3, n=8): 8
- Mice surviving ([9]; 10 mg/kg i.v., Day 4, n=8): 8
- Mice surviving ([9]; 10 mg/kg i.v., Day 5, n=8): 8
- Mice surviving ([9]; 10 mg/kg i.v., Day 6, n=8): 8
- Mice surviving ([9]; 10 mg/kg i.v., Day 7, n=8): 8
- rescue of infected animals ([9]; S. pyogenes systemic infection, i.v. twice daily for two days): complete rescue
- tolerability ([9]; infected mice, 1, 3 or 10 mg/kg i.v. twice daily for two days, all dose levels): well-tolerated
- Clint,mic [10]: 21

SMILES: CCC[C@@H]1C[C@@H](C(=O)N[C@@H]([C@H]2O[C@H](SC)[C@H](O)[C@@H](O)[C@H]2O)[C@H](C)Cl)N(C)C1 [Clindamycin, clindamycin, reference compound]
- MIC [11]: 0.25 µg/mL (≈ 0.588 µM)
